Read-outs that look alike come from different tables or passages of the source.
Columns and labels:
[1] = test system: Granta-519 cells; test: Cell proliferation assay in Granta-519 cells; type: cell-based; conditions: Homo sapiens
Protocol: Granta-519 cells were maintained in PRMI 1640 (Corning Cellgro, Catalog #: 10-040-CV) medium supplemented with 10% v/v FBS (GE Healthcare, Catalog #: SH30910.03). Compounds were dissolved in DMSO to make 10 mM stocks and stored at −20° C. Nine-point, 3-fold serial dilutions were made with DMSO with top concentration at 1 mM (working stocks).
On day of experiment, compound working stocks were further diluted at 1:50 with fresh medium in 96 well plate, and 10 μL of diluted drugs were added to a new 96 well plate for proliferation assay. Cells growing at exponential phase were spun down at 1500 rpm for 4 min and resuspend in fresh medium to reach a density of 0.5×10^6 cells/ml. 200 ul of cells were added to 96 well plate containing diluted drugs and incubated for 3 days. DMSO was used a vehicle control.
On day 3, 10 μL of Cell Counting Kit-8 (CCK-8, Jojindo, CK04-13) solution was added to a new 96 well plate. Cells incubated with drugs for 3 days were resuspended by pipetting up and down, and 100 μL of cells were transferred to 96 well plate containing CCK-8 reagent to measure viable cells. Plates were incubated in CO2 incubator for 2 hours and OD450 values were measured with a microplate reader (iMark microplate reader, Bio-Rad).
For re-plating, compound working stocks were diluted at 1:50 with fresh medium and 10 μL of diluted drugs were added to a new 96 well plate. Cells from Day 3 plate (50 ul) were added to 96 well plate containing fresh drug and additional 150 μL of fresh medium was added to reach 200 μL volume. Plate was returned to CO2 incubator and incubated for 3 more days. Viable cells measurement and re-plating were repeated on day 6, and the final viable cells measurement was taken on day 10.
Percentage of viable cells, relative to DMSO vehicle control, were calculated and plotted in Graphpad Prism ([Inhibitor]vs. normalized response−Variable slope) to determine proliferation IC50 values on day 10.
One day before experiment, Granta-519 cells were passaged to a density of 0.5×10^6 cells/ml. U-87 MG cells were trypsinized and 2,000 cells were seeded into 96-well plates and allow to grow overnight. On the day of experiment (day 0), Granta-519 Cells were spun down at 1,500 rpm for 4 min, resuspended in fresh medium to 0.5×10^6 cells/ml and 190 ul of cells were added to 96 well plates. For U-87 MG cells, old medium was removed and replaced with 190 uL fresh medium. Compound working stocks were first diluted at 1:50 with fresh medium in 96 well plate and 10 μL of diluted drugs were added to 96 well plates containing cells and incubated for 3 days. DMSO was used a vehicle control.
One day 3, 50 uL of Granta-519 cells were transferred to a new 96-well plate and 140 uL fresh medium was added. For U-87 MG cells, old medium was removed and replaced with 190 uL fresh medium. Compound working stocks were freshly diluted at 1:50 with medium and 10 μL of diluted drugs were added to cells and grow for 3 additional days. The same process was repeated on day 6. Cells were allowed to grow for additional 4 days.
On day 10, 100 uL Granta-519 cells were transferred to a new 96 well plate and 10 μL of Cell Counting Kit-8 (CCK-8, Jojindo, CK04-13) solution was added. For U-87 MG cells, old medium was removed and replaced with 100 uL fresh medium and 10 uL CCK-8 solution was added. Plates were incubated in CO2 incubator for 2 hours (Granta-519 cells) or 30 min (U-87 MG cells) and OD450 values were measured with a microplate reader (iMark microplate reader, Bio-Rad). Percentage of viable cells, relative to DMSO vehicle control, were calculated and plotted in Graphpad Prism ([Inhibitor]vs. normalized response−Variable slope) to determine proliferation IC50 values on day 10.
These cell proliferation procedures produced the data in Table 7.

[2] = biological target: T1, PRMT5/MEP50 complex (Homo sapiens (Human), UniProt O14744); test: Flash plate assay; type: biochemical
T1 sequence (O14744 whole entry): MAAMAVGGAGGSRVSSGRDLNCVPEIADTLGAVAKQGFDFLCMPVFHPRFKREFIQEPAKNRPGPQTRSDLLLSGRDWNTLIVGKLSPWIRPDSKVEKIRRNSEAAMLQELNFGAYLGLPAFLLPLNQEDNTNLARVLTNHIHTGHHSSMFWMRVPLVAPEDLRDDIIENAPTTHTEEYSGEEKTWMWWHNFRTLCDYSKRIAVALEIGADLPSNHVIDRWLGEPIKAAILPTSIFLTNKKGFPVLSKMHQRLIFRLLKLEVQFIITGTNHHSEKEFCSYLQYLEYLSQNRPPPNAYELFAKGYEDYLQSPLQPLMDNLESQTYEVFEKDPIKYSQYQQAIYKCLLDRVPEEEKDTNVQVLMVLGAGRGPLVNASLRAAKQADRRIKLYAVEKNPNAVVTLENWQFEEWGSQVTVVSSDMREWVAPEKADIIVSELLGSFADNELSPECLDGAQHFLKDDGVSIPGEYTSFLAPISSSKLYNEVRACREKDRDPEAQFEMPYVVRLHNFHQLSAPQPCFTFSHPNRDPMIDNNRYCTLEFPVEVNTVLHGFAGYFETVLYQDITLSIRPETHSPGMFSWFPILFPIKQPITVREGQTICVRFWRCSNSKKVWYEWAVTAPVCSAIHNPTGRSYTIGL
T1 sequence (Q9BQA1 whole entry partner): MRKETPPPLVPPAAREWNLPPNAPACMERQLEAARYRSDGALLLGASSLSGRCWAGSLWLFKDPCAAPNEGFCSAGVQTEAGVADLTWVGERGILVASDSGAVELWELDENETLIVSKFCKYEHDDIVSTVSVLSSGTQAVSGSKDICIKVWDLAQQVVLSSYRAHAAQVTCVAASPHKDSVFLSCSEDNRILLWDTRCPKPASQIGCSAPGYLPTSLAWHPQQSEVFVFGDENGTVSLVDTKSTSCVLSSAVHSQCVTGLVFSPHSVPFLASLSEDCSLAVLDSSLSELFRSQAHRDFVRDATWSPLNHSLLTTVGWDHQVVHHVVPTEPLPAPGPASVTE
Summary of the method: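 Inhibition of the human PRMT5/MEP50 complex was measured radiometrically. Compounds in 3-fold DMSO dilutions were preincubated 20 minutes at 37° C with 2.5 nM enzyme and 300 nM AcH4-23 histone H4 peptide in 30 μl assay buffer. S-[3H-methyl]-adenosyl-L-methionine (1 μM) was then added for 30 minutes at 37° C. Reactions were stopped with 8M Guanidine HCl, captured on streptavidin SPA beads and scintillation counted. IC50 values came from 4-parameter fits.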

[3] = biological target: T1, PRMT5/MEP50 complex; test: HotSpot Assay; type: biochemical
Protocol: HotSpot Assay. Compounds were solubilized and 3-fold diluted in 100% DMSO. […] Standard reactions were performed in a total volume of 50 μl in assay buffer, with histone H2A (5 μM final) as substrate. To this was added the PRMT5/MEP50 complex diluted to provide a final assay concentration of 5 nM and the compounds were allowed to preincubate for 15 to 20 minutes at room temperature. The reaction was initiated by adding S-[3H-methyl]-adenosyl-L-methionine (PerkinElmer) to final concentration of 1 μM. Following a 60 minutes incubation at 30° C., the reaction was stopped by adding 100 μL of 20% TCA. Each reaction was spotted onto filter plate (MultiScreen FB Filter Plate, Millipore), and washed 5 times with PBS buffer, Scintillation fluid was added to the filter plate and read in a scintillation counter. IC50 values were determined by fitting the data to the standard 4 parameters with Hill Slope using GraphPad Prism software. This procedure generated the HotSpot data in Table 7.

[4] = 240 h, Granta-519, day 10, read-out: Prolif_Granta IC50
[5] = initial testing, read-out: IC50 (flash plate)

SMILES	IC50 ([2]; read-out: Flash Plate IC50)	IC50 [3]	IC50 [2, 5]	IC50 [1, 4]	IC50 ([1]; Granta-519, initial testing, read-out: Prolif_(Granta) IC50)
Nc1ncnc2c1c(F)cn2[C@@H]1O[C@H]([C@H](O)c2ccc3c(c2)CC3)[C@@H](O)[C@H]1O [Example 6, (2R,3R,4S,5R)-2-(4-amino-5-fluoro-7H-pyrrolo[2,3-d]pyrimidin-7-yl)-5-((R)-bicyclo[4.2.0]octa-1(6),2,4-trien-3-yl(hydroxy)methyl)tetrahydrofuran-3,4-diol]	2.8 nM	0.7 nM	–	67 nM	–
Cc1ncnc2c1ccn2[C@@H]1O[C@H]([C@H](O)c2nc3c(s2)CCC3)[C@@H](O)[C@H]1O [Example 52, (2S,3S,4R,5R)-2-((S)-(5,6-dihydro-4H-cyclopenta[d]thiazol-2-yl)(hydroxy)methyl)-5-(4-methyl-7H-pyrrolo[2,3-d]pyrimidin-7-yl)tetrahydrofuran-3,4-diol]	9.3 nM	9 nM	–	396 nM	–
C[C@@](O)(c1ccc2c(c1)CC2)[C@H]1O[C@@H](n2ccc3c(N)ncnc32)[C@H](O)[C@@H]1O [Example 1, (2R,3R,4S,5S)-2-(4-amino-7H-pyrrolo[2,3-d]pyrimidin-7-yl)-5-((R)-1-(bicyclo[4.2.0]octa-1(6),2,4-trien-3-yl)-1-hydroxyethyl)tetrahydrofuran-3,4-diol]	6.2 nM	3 nM	6.3 nM	38 nM	28 nM
Cc1ncnc2c1ccn2[C@@H]1O[C@H]([C@H](O)c2ccc3c(c2)CC3)[C@@H](O)[C@H]1O [Example 11, (2R,3S,4R,5R)-2-((R)-bicyclo[4.2.0]octa-1(6),2,4-trien-3-yl(hydroxy)methyl)-5-(4-methyl-7H-pyrrolo[2,3-d]pyrimidin-7-yl)tetrahydrofuran-3,4-diol]	6.8 nM	3 nM	5.9 nM	92 nM	–

More lines, main results first:

IC50 ([2]; read-out: Flash Plate IC50)	IC50 [3]	IC50 [2, 5]	SMILES	IC50 [1, 4]	IC50 ([1]; Granta-519, initial testing, read-out: Prolif_(Granta) IC50)
4.1 nM	2 nM	4.2 nM	Nc1ncnc2c1ccn2[C@@H]1O[C@H]([C@H](O)c2ccc3c(c2)CC3)[C@@H](O)[C@H]1O [Example 2, (2R,3R,4S,5R)-2-(4-amino-7H-pyrrolo[2,3-d]pyrimidin-7-yl)-5-((R)-bicyclo[4.2.0]octa-1(6),2,4-trien-3-yl(hydroxy)methyl)tetrahydrofuran-3,4-diol]	35 nM	–
20 nM	11 nM	–	Nc1ncnc2c1c(Br)cn2[C@@H]1O[C@H]([C@H](O)c2ccc3c(c2)CC3)[C@@H](O)[C@H]1O [Example 36, (2R,3R,4S,5R)-2-(4-amino-5-bromo-7H-pyrrolo[2,3-d]pyrimidin-7-yl)-5-((R)-bicyclo[4.2.0]octa-1,3,5-trien-3-yl(hydroxy)methyl)tetrahydrofuran-3,4-diol]	1100 nM	–
17.6 nM	–	–	O[C@@H]1[C@H](O)[C@@H]([C@H](O)c2ccc3c(c2)CC3)O[C@H]1n1ccc2c(Cl)ncnc21 [Example 56, (2R,3S,4R,5R)-2-((R)-bicyclo[4.2.0]octa-1(6),2,4-trien-3-yl(hydroxy)methyl)-5-(4-chloro-7H-pyrrolo[2,3-d]pyrimidin-7-yl)tetrahydrofuran-3,4-diol]	50000 nM	–
134 nM	164 nM	–	OCCc1ncnc2c1ccn2[C@@H]1O[C@H]([C@H](O)c2ccc3c(c2)CC3)[C@@H](O)[C@H]1O [Example 53, (2R,3S,4R,5R)-2-((R)-bicyclo[4.2.0]octa-1,3,5-trien-3-yl(hydroxy)methyl)-5-(4-(2-hydroxyethyl)-7H-pyrrolo[2,3-d]pyrimidin-7-yl)tetrahydrofuran-3,4-diol]	10000 nM	–
37.6 nM	–	–	CNc1ncnc2c1ccn2[C@@H]1O[C@H]([C@H](O)c2ccc3c(c2)CC3)[C@@H](O)[C@H]1O [Example 54, (2R,3S,4R,5R)-2-((R)-bicyclo[4.2.0]octa-1(6),2,4-trien-3-yl(hydroxy)methyl)-5-(4-(methylamino)-7H-pyrrolo[2,3-d]pyrimidin-7-yl)tetrahydrofuran-3,4-diol]	1010 nM	–
